Patent US20220151993A1, “TREATMENT OF ANXIETY AND DEPRESSION” (NEW YORK UNIVERSITY, priority 2020, published 2022)

Key:
[1] = test system: patients with cancer-related psychiatric and existential distress; assay: Functional Assessment of Chronic Illness Therapy-Spiritual Well-Being (FACIT-Sp-12), long-term follow-up; type: in vivo, human; details: for Faith / Meaning/peace / Spiritual well-being: single 0.3 mg/kg dose with psychotherapy; for Faith: baseline 6.75; for Meaning/peace: baseline 19.43; for Spiritual well-being: baseline 55.69
Method: The present example assesses the long-term effects of a single dose of psilocybin (0.3 mg/kg) in conjunction with psychotherapy in patients with cancer-related psychiatric and existential distress.
29 participants were randomly assigned to one of two groups: psilocybin (0.3 mg/kg) on the first medication session followed by niacin (250 mg) on the second session (i.e. psilocybin-first group), or niacin (250 mg) on the first medication session followed by psilocybin (0.3 mg/kg) on the second session (i.e. niacin-first group). Psilocybin and niacin were administered in identically appearing gelatin capsules.
Participants received three 2-hour preparatory psychotherapy sessions in order to review the purpose and intention of participation in the study, treatment goals, and structure of the treatment sessions. Medications were administered in 8-hour treatment sessions which included a discussion of the participant's subjective experience with the treatment team to consolidate the memory of the experience and to begin the process of post-integrative psychotherapy. Participants also received three 2-hour post-medication integration sessions (repeated after the second dosing session) to further consolidate the memory of the experience and to continue the process of psychological integration. All psychotherapy treatment sessions were delivered by a dyadic therapy team trained in a blend of psychotherapies with an evidence base to support their use in cancer patients (drawing upon principles of palliative care therapy, existential psychotherapy, cognitive-behavioural therapy, psychoanalysis therapy, and transpersonal psychology) and were taught about the safety and clinical pharmacology of psilocybin. Each therapy dyad underwent six confidential one-to-one sessions to build their alliance and exchange ideas about psychedelic therapy. The trial employed a crossover design at seven weeks following the first drug administration, with an outcome assessment at 6.5 months (26 weeks) following the second drug administration (i.e. after the crossover).
Two long-term follow ups (LTFUs) were carried out to assess the continued effect of psilocybin. Of the original 29 participants, all 16 participants who were not deceased at the time of LTFU were contacted (the remaining 13 participants were deceased). Of the 16 participants who were contacted, 15 agreed to participate in the LTFU and completed measures through a secure online portal. One participant died (from cancer-related complications) after completing the first LTFU and prior to the second LTFU, leaving us with 14 participants at the second LTFU. The first and second LTFUs occurred on average 3.2 years (range 2.3-4.5 years) and 4.5 years (range 3.5-5.5 years) following the participants' psilocybin dosing date, respectively.
Spirituality was assessed using the Functional Assessment of Chronic Illness Therapy-Spiritual Well-Being (FACIT-Sp-12; Bredle et al., 2011). This is a 12-item measure of spiritual well-being among individuals with cancer and other forms of chronic illness. Items are rated on a five-point Likert scale. The measure yields three subscales: a sense of meaning/peace in life, a sense of comfort from one's faith, and total spiritual well-being score. Total scores for each subscale range from 0-32, 0-16, and 0-48, respectively. Data have not been published regarding recommended cutoff scores for this measure. This measure has shown good reliability (Cronbach's a ranging from 0.81-0.88) and has been well validated (Bredle et al. 2011).
Regarding all analyses for both the primary and secondary outcome assessments, both the psilocybin-first and niacin-first dose sequence groups were collapsed and combined into one group. Reasons for this decision included the crossover design, which prevented valid between-group comparisons subsequent to the crossover, and a need to increase power given the modest sample size. […]

[2] = test system: patients with life-threatening cancer; details: cited from earlier work
[3] = mean score at 6.5-8 months, p < 0.001 vs baseline

CN(C)CCc1c[nH]c2cccc(OP(=O)(O)O)c12 [psilocybin, [3-(2-dimethylaminoethyl)-1H-indol-4-yl] dihydrogen phosphate]
Faith ([1]; mean score at 3.2 years, p < 0.05 vs baseline): 9.31
Meaning/peace ([1]; mean score at 3.2 years): 19.27
Spiritual well-being ([1]; mean score at 3.2 years): 59.85
Faith ([1]; mean score at 4.5 years, p < 0.01 vs baseline): 10.43
Meaning/peace ([1]; mean score at 4.5 years): 20.20
Spiritual well-being ([1]; mean score at 4.5 years, p < 0.05 vs baseline): 65.04
Faith ([1]; mean score at 6.5-8 months, p < 0.01 vs baseline): 9.77
Meaning/peace [1, 3]: 26.34
Spiritual well-being [1, 3]: 70.58
spiritual well-being and faith domains (FACIT-Sp-12) relative to baseline ([1]; second LTFU): significant improvements
patients meeting criteria for clinically significant antidepressant or anxiolytic responses ([2]; final 6.5 month follow up point, 0.3 mg/kg with psychotherapy): 60-80%
time post dosing up to which rapid and sustained anxiolytic and antidepressant effects were seen ([2]; single dosing session 0.3 mg/kg with psychotherapy): up to 7 weeks
